In paper PMC3278557 (Pharmacological Research, 2011):

Tested on: cultured neonatal rat cardiomyocytes
Experiment: Effects on hypoxic cardiomyocytes
Format: cell-based

SMILES	anti-hypoxic protective potency (concentration range) [µM]	cardioprotection of hypoxic cardiomyocytes (100 nM)	antagonism of the protective effect of 6 (1 nM) (antagonist at 1 μM, LDH release or PI staining)
CNC(=O)[C@H]1O[C@@H](n2cnc3c(NCc4cccc(I)c4)nc(Cl)nc32)[C@H](O)[C@@H]1O [Cl-IB-MECA, 2-chloro-N^6-(3-iodobenzyl)-5′-N-methylcarboxamidoadenosine]	~0.1	provided cardioprotection	
CCCOC(=O)c1c(-c2ccccc2)nc(CC)c(C(=O)SCC)c1CCC [MRS1523, 5-propyl-2-ethyl-4-propyl-3-(ethylsulfanylcarbonyl)-6-phenylpyridine-5-carboxylate]			completely reversed
